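Method: 48-hour compound exposure of cells in 96-well plates, five concentrations, linear interpolation of endpoints. GI50 = concentration required for 50% inhibition of growth. TGI is the concentration that stops growth completely.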
Columns and labels:
Experiment in all cases: growth of human tumour cells (NCI), 48 h
A549 NSCLC = tested on: A549 NSCLC
HT29 colon = tested on: HT29 colon
K-562 leukemia = tested on: K-562 leukemia
NCI-H23 lung = tested on: NCI-H23 lung
NCI-H460 lung = tested on: NCI-H460 lung
NCI/ADR-RES ovarian = tested on: NCI/ADR-RES ovarian
SF-268 CNS = tested on: SF-268 CNS
SK-OV-3 ovarian = tested on: SK-OV-3 ovarian
SN12C renal = tested on: SN12C renal
SNB-19 CNS = tested on: SNB-19 CNS

SMILES | GI50 (A549 NSCLC) | TGI (A549 NSCLC) | GI50 (HT29 colon) | TGI (HT29 colon) | GI50 (K-562 leukemia) | TGI (K-562 leukemia) | GI50 (NCI-H23 lung) | TGI (NCI-H23 lung) | GI50 (NCI-H460 lung) | TGI (NCI-H460 lung) | GI50 (NCI/ADR-RES ovarian) | TGI (NCI/ADR-RES ovarian) | GI50 (SF-268 CNS) | TGI (SF-268 CNS) | GI50 (SK-OV-3 ovarian) | TGI (SK-OV-3 ovarian) | GI50 (SN12C renal) | TGI (SN12C renal) | GI50 (SNB-19 CNS) | TGI (SNB-19 CNS)
Cc1nn2c(/C=C3/C(=O)Nc4cc(Cl)ccc43)c(-c3ccccc3)nc2s1 | 3.28 µM | 14.9 µM | 11.1 µM | > 100 µM | 4.27 µM | > 100 µM | 3.68 µM | > 100 µM | 3.72 µM | > 100 µM | 3.54 µM | > 100 µM | 6.81 µM | > 100 µM | 14.3 µM | > 100 µM | 2.84 µM | 11.1 µM | 10.7 µM | > 100 µM
Cn1cc(-c2ccc3nnc(Sc4ccc5ncccc5c4)n3n2)cn1 | > 86 µM | > 100 µM | > 100 µM | > 100 µM | 38.4 µM | > 100 µM | 56 µM | > 100 µM | 79.2 µM | > 100 µM | > 100 µM | > 100 µM | 60.2 µM | > 100 µM | > 73.9 µM | > 100 µM | > 73.9 µM | > 100 µM | 47.3 µM | > 100 µM
CCCCCC[C@H](C)Nc1nc2ccccc2c2occc12 | 8.3 µM | 26.2 µM | 8.15 µM | > 100 µM | 16.3 µM | > 100 µM | 0.576 µM | 7.23 µM | > 100 µM | > 100 µM | 0.147 µM | 12.8 µM | > 100 µM | > 100 µM | 16.5 µM | 36.2 µM | 11.2 µM | 23.9 µM | 29.7 µM | > 100 µM
Cc1nc2c(n1C)C(=O)c1ccccc1C2=O | 21.5 µM | > 100 µM | 37.2 µM | > 100 µM | 59.3 µM | > 100 µM | 50.4 µM | > 100 µM | 18 µM | > 100 µM | 81.7 µM | > 100 µM | > 100 µM | > 100 µM | > 100 µM | > 100 µM | 49.4 µM | > 100 µM | 91.3 µM | > 100 µM
O=C(NCCc1ccccn1)OCc1nc2nc(Cl)nc(N3CCOCC3)c2[nH]1 | 7.16 µM | 24.9 µM | 1.98 µM | 6.75 µM | 2.07 µM | 14.3 µM | 1.77 µM | 4.14 µM | 3.12 µM | 11.1 µM | 1.44 µM | 6.22 µM | 1.69 µM | 3.8 µM | 6.11 µM | 19.5 µM | 1.5 µM | 3.19 µM | 4.58 µM | 16.5 µM
O=c1/c(=C\c2ccc(F)cc2)sc2n1C(c1ccc(F)cc1)C1=C(N=2)c2ccc3ccccc3c2OCC1 (stereo unspecified) | > 100 µM | > 100 µM | > 100 µM | > 100 µM | > 29.5 µM | > 100 µM | > 100 µM | > 100 µM | 14.2 µM | > 100 µM | > 100 µM | > 100 µM | > 30.8 µM | > 100 µM | > 100 µM | > 100 µM | > 100 µM | > 100 µM | > 100 µM | > 100 µM
COC(=O)C1=C(C(=O)OC)C2(C)C=CC1O2 (stereo unspecified) |  | > 100 µM |  | 28.5 µM |  | 19.4 µM |  | 32.4 µM |  | > 100 µM |  | 37.6 µM |  | > 100 µM |  | > 100 µM |  | 31.3 µM |  | > 100 µM
COc1cc(NC(=O)CCSc2nc3ccc(C)cc3c(=O)n2Cc2ccccc2)cc(OC)c1OC | 8.08 µM | > 100 µM | > 100 µM | > 100 µM | > 100 µM | > 100 µM | 26.6 µM | > 100 µM | 5.31 µM | > 100 µM | 9.25 µM | > 100 µM | 4.22 µM | 49.6 µM | 4.75 µM | 39.3 µM | 78 µM | > 100 µM | 3.17 µM | 18.5 µM
c1ccc2c(-c3nc(-c4c[nH]c5ccncc45)cs3)c[nH]c2c1 | 2.45 µM | 6.21 µM | 2.07 µM | 4.2 µM | 2.05 µM | 5.29 µM | 1.85 µM | 5 µM | 1.76 µM | 3.58 µM | 3.2 µM | 15.5 µM | 2.51 µM | 7.96 µM | 2.62 µM | 8.29 µM | 1.67 µM | 3.35 µM | 2.18 µM | 5.12 µM
O=C1CCC(N2C(=O)c3ccccc3C2=O)C(=O)N1 (stereo unspecified) |  | > 100 µM | > 100 µM | > 100 µM |  | > 100 µM |  | > 100 µM |  | > 100 µM |  | > 100 µM |  | > 100 µM |  | > 100 µM |  | > 100 µM |  | > 100 µM
COC(=O)C1C(O)C(C)C(O)C(C)C=C(C)C2=C3C(=C(C)C(=O)c4c(O)c(c(C)c(OC(C)=O)c43)NC(=O)C(C)=C/C=C\C(C)C(O)C(C)C1O)OCO2 (stereo unspecified) |  | > 100 µM |  | 70.2 µM |  | 47.5 µM |  | 63 µM |  | > 100 µM |  | > 100 µM |  | 44.9 µM |  | > 100 µM |  | > 100 µM |  | > 100 µM
CCN(c1cc(-c2ccc(CN3CCOCC3)cc2)cc(C(=O)NCc2c(C)cc(C)[nH]c2=O)c1C)C1CCOCC1 | 33.5 µM | > 100 µM | 15.7 µM | 35.6 µM | 32.6 µM | > 100 µM | 59.4 µM | > 100 µM | 25.5 µM | > 66.8 µM | 36.2 µM | > 100 µM | 26.2 µM | > 93.6 µM | 52.9 µM | > 100 µM | 26.9 µM | > 64.5 µM | 37.4 µM | > 84.5 µM
C#Cc1nc2ccccc2c(=O)[nH]1 | 2.96 µM | 12.9 µM | 0.428 µM | 1.64 µM | 0.544 µM | 20.4 µM | 1.69 µM | 4.77 µM | 1.79 µM | 7.66 µM | 0.927 µM | 8.19 µM | 1.54 µM | 4.57 µM | 6.54 µM | 40.1 µM | 0.331 µM | 1.26 µM | 4.19 µM | 18 µM

— PubChem BioAssay (NCI)
